{"source": "patent US12440476B2", "about": "“Agents that target telomerase reverse transcriptase (TERT) for treating cancer and sensitizing cancer cells to genotoxic therapy” (Northwestern University, priority 2022, dated 2025)", "key": {"CT26 subcutaneous tumors": {"tested_on": "CT26 subcutaneous tumors", "assay": "Subcutaneous CT26 tumor growth, NU-1 with or without 10 Gy", "format": "in vivo, BALB/c mice", "description": "For tumor inoculation, 7-9 week BALB/c mice or NSG mice were subcutaneously injected in the flank with 0.5×10^6 CT26 cells in 100 μL PBS. On Day 9 (tumor average volume ˜30 mm^3), the tumor bearing BALB/c mice were randomly divided into 4 groups of 8, while the NSG mice were randomly divided into 2 groups of 5-6. For NU-1 treatment, 10 mg/kg of NU-1 in 100 μL PBS was injected intraperitoneally once on each of the 2 days before, the day of and 2 days after irradiation. Mouse weight was measured before treatment. Tumor irradiation was conducted on Day 11 using a RadSource RS-2000 X-Ray generator operating at 160 kV and 25 mA at 10 Gy, calibrated by NIST traceable dosimetry. From Day 7 after tumor inoculation, tumors were measured by calipers every 2-3 days and volume calculated using the formula: Tumor volume (mm^3)=length (mm)×width (mm)×width (mm)[…]. On Day 18 after tumor inoculation, tumors from 3 mice under each treatment condition were collected for histology analysis. The rest of the mice were continuously maintained and recorded until at least Day 28 or reaching the humane endpoint for tumor volume. No animals that formed tumors after injection with CT26 cells were excluded from any studies reported here.\nCT26 tumors were collected 5 days after treatment (Day 18 after tumor inoculation) and fixed in 10% neutral formalin for 24 h. Formaldehyde-fixed paraffin-embedded (FFPE) tumors were sectioned and stained with hematoxylin and eosin (H&E) by the Human Tissue Resource Center at The University of Chicago. To perform immunofluorescence analysis, tumor sections were deparaffinized in xylene for 10 min, then rehydrated with 95%, 70%, 50%, and 0% ethanol for 5 min each. After that, the tumor section was immersed in 10 mM sodium citrate buffer (pH 6.0) for 30 min at 90° C. for antigen retrieval. Then the tumor sections were blocked in 5% BSA-TBS, stained with anti-Ki67 (1:1000), anti-γH2AX (1:500), anti-CD45 (1:500), anti-CD11c (1:250), anti-CD8 (1:250), anti-granzyme B (1:250) and anti-PD-L1 primary antibodies diluted in 5% BSA-TBS at 4° C. overnight. Followed by washing with TBST, tumor sections were stained with fluorophore-conjugated secondary antibodies (1:2000, Vector Labs) and DAPI (1 μg/mL) diluted in 5% BSA-TBS for 90 min at room temperature. The H&E stained tissue sections were scanned using an Olympus VS200 SlideView Whole Slide Scanner. The fluorescent tumor sections were imaged using a 3i Marianas Spinning Disk Confocal with a 20× objective and pseudo-colored using Fiji. Detailed primary antibody information is provided in Key resources table."}, "Saos-2 cells": {"tested_on": "Saos-2 cells", "assay": "DNA damage foci staining (53BP1, γH2AX)", "format": "cell-based, human", "conditions": "1 μM NU-1, 0 or 6 Gy", "description": "MCF7 or Saos-2 cells were seeded on sterile cover glass at 2.5×10^4 per well in 24-well plates. MCF7 cells were treated with DMSO, NU-2 (0.5 μM), NU-1 (0.5 μM), chrolactomycin (0.5 μM), BIBR 1532 (10 μM), or MST-312 (1 μM) for 1 h, and Saos-2 cells were treated with DMSO or NU-1 (1 μM) for 1 h, followed by 0 or 6 Gy irradiation. 24 h after irradiation, cells were fixed with 4% PFA for 10 min and permeabilized with 0.2% Triton-X 100 diluted in PBS for 10 min at room temperature. After blocking with 5% BSA-PBS for 1 h, primary antibodies for γH2AX (Millipore, 05-636, 1:1000) or 53BP1 (Novus, NB100-304, 1:1000) diluted in 5% BSA-PBS were then incubated on cell slides overnight at 4° C. Following PBS washes, DAPI (1 μg/mL) and fluorescent secondary antibodies (Jackson ImmunoResearch, 1:2000, ) diluted in 5% BSA-PBS were applied for 1 h at room temperature. Cell slides were mounted with ProLong Gold Antifade Mountant (Thermo Fisher Scientific) after PBS washes. Foci images were captured on a Zeiss Axiovert 40CFL with a 40× Plan-NeoFluar objective and pseudo-colored using Fiji. Three replicates were performed."}, "[1]": {"conditions": "IR + NU-1, tumors removed on Day 18"}}, "data": [{"smiles": "C=C1C(=O)[C@](C)(C(=O)OC)[C@H](CCc2cn(Cc3ccc(F)cc3F)nn2)O[C@@H]1C", "note": "[NU-1]", "values": [{"measurement": "Effect on tumor growth, NU-1 alone", "setting": "CT26 subcutaneous tumors; 10 mg/kg IP daily Days 9 to 13, no IR", "value": "no appreciable effect"}, {"measurement": "Tumors eliminated within two weeks after treatment", "setting": "CT26 subcutaneous tumors; IR (10 Gy, Day 11) + NU-1 10 mg/kg IP Days 9 to 13", "value": "7 of 8"}, {"measurement": "Tumor immune infiltration", "setting": "CT26 subcutaneous tumors; IR + NU-1, Day 18 tumor sections", "value": "markedly higher tumor immune infiltration"}, {"measurement": "Tumor recurrence after clearance", "setting": "CT26 subcutaneous tumors; IR + NU-1, followed 54 days", "value": "did not recur"}, {"measurement": "Ki-67 expression in tumors vs IR alone", "setting": "CT26 subcutaneous tumors; [1]", "value": "lower expression of proliferation marker Ki-67"}, {"measurement": "Persistent γH2AX in tumors vs IR alone", "setting": "CT26 subcutaneous tumors; [1]", "value": "upregulation of persistent γH2AX"}, {"measurement": "PD-L1 in tumors", "setting": "CT26 subcutaneous tumors; IR + NU-1 vs IR alone", "value": "less increase in PD-L1"}, {"measurement": "Effect on 53BP1 or γH2AX foci", "setting": "Saos-2 cells", "value": "appeared not to impact 53BP1 or γH2AX foci"}]}]}
